{"source": "paper PMC6268831", "about": "(Molecules, 2012)", "key": {"rat thymocytes [1]": {"test_system": "rat thymocytes", "assay": "Mitochondrial membrane potential of rat thymocytes (Rhodamine 123 uptake)", "type": "cell-based", "settings": "24 h, ratio of mean fluorescence intensity to control, mean ± SD", "method": "Experiments were performed on adult male Wistar rats (150−180 g), 8−10 weeks old, bred at the Vivarium of the Institute of Biomedical Research, Medical Faculty, Nis, Serbia, under conventional laboratory conditions and in accordance with national animal protection guidelines. Rat thymocytes were isolated as described previously. The viability of the isolated cells, as determined by trypan blue dye exclusion test, was always over 95%. Isolated thymocytes were counted and adjusted to a density of 5 × 10^6 cells/mL of CM. […] Control samples were cultured in CM, with appropriate amounts of 96% ethanol (9.6%). Concentrations of tested substances used in our study were adopted from our previous report, regarding the effect of different compounds on thymocytes toxicity. All cell cultures were done in triplicates and cultivated for 24 h in an incubator (Galaxy, Wolf Laboratories, Pocklington, UK) with 5% CO2 at 37 °C. […] The fluorescence of intracellular Rhodamine 123 (excitation 485 nm; emission 530 nm) was measured by Perkin-Elmer fluorimeter, as published earlier. For each sample, basal fluorescence intensity values were subtracted from those obtained after different treatments and results were presented as ratio of mean fluorescence intensity (MFI)."}, "rat thymocytes [2]": {"test_system": "rat thymocytes", "assay": "Cell viability of rat thymocytes by CCK-8 assay", "type": "cell-based", "settings": "24 h, absorbance ratio to control cells, mean ± SD", "method": "(§1) Experiments were performed on adult male Wistar rats (150−180 g), 8−10 weeks old, bred at the Vivarium of the Institute of Biomedical Research, Medical Faculty, Nis, Serbia, under conventional laboratory conditions and in accordance with national animal protection guidelines.\n(§2) Rat thymocytes were isolated as described previously. The viability of the isolated cells, as determined by trypan blue dye exclusion test, was always over 95%. Isolated thymocytes were counted and adjusted to a density of 5 × 10^6 cells/mL of CM.\n(§3) Isolated thymocytes were cultivated in 96-well round-bottom plates (NUNC, Aarhus, Denmark), containing a 100 µL of cell suspension (5 × 10^5 cells) in each well. […] Control samples were cultured in CM, with appropriate amounts of 96% ethanol (9.6%). Concentrations of tested substances used in our study were adopted from our previous report, regarding the effect of different compounds on thymocytes toxicity. All cell cultures were done in triplicates and cultivated for 24 h in an incubator (Galaxy, Wolf Laboratories, Pocklington, UK) with 5% CO2 at 37 °C.\nCell viability of rat thymocytes, after cultivation period, was evaluated by CCK-8 assay as was previously described. Ten µL of reaction mixture was added in each well. After 2 h of incubation, the solubilized formazan product was quantified spectrophotometrically, by using a microplate reader Perkin-Elmer (Wallac Victor^2V, Turku, Finland). Absorbance was measured at 450 nm. For each sample, basal intensity values were subtracted from those obtained after different treatments. Absorbances were presented as ratio for comparison with control samples."}, "rat thymocytes [3]": {"test_system": "rat thymocytes", "assay": "Intracellular ROS production in rat thymocytes (H2DCF-DA probe)", "type": "cell-based", "settings": "24 h, ratio of mean fluorescence intensity to control, mean ± SD", "method": "as §1, §2, §3\nA redox-sensitive probe (H2DCF-DA) was used to determine changes in overall cellular ROS levels, as described previously. The change in fluorescence (excitation 485 nm; emission 530 nm) was measured using a Perkin-Elmer fluorimeter (Wallac Victor^2V). For each sample, basal fluorescence intensity values were subtracted from those obtained after different treatments and results were presented as ratio of mean fluorescence intensity (MFI)."}, "[4]": {"test_system": "human acute monocytic leukemia cell line (THP-1)", "settings": "tested as essential oil, lower concentrations than in this study, trypan blue viability assay; cited from earlier work"}}, "data": [{"smiles": "CC1(C)C2CCC1(C)C(O)C2", "note": "(stereo not shown) [Borneol, 4,7,7-trimethylbicyclo[2.2.1]heptan-3-ol]", "values": [{"measurement": "Mitochondrial membrane potential", "setting": "rat thymocytes [1]; 0.5 µg/mL", "result": "0.799 ± 0.022"}, {"measurement": "Mitochondrial membrane potential", "setting": "rat thymocytes [1]; 5 µg/mL", "result": "0.856 ± 0.084"}, {"measurement": "Mitochondrial membrane potential", "setting": "rat thymocytes [1]; 50 µg/mL", "result": "0.876 ± 0.110"}, {"measurement": "Cytotoxicity (CCK-8 assay)", "setting": "rat thymocytes [2]; 0.5 µg/mL", "result": "1.067 ± 0.004"}, {"measurement": "Cytotoxicity (CCK-8 assay)", "setting": "rat thymocytes [2]; 5 µg/mL", "result": "1.070 ± 0.015"}, {"measurement": "Cytotoxicity (CCK-8 assay)", "setting": "rat thymocytes [2]; 50 µg/mL", "result": "0.975 ± 0.144"}, {"measurement": "Intracellular ROS production", "setting": "rat thymocytes [3]; 0.5 µg/mL", "result": "1.268 ± 0.102"}, {"measurement": "Intracellular ROS production", "setting": "rat thymocytes [3]; 5 µg/mL", "result": "1.224 ± 0.108"}, {"measurement": "Intracellular ROS production", "setting": "rat thymocytes [3]; 50 µg/mL", "result": "1.164 ± 0.191"}]}, {"smiles": "CC12CCC(CC1=O)C2(C)C", "note": "(stereo not shown) [Camphor, 4,7,7-trimethylbicyclo[2.2.1]heptan-3-one]", "values": [{"measurement": "Mitochondrial membrane potential", "setting": "rat thymocytes [1]; 0.5 µg/mL", "result": "0.740 ± 0.071"}, {"measurement": "Mitochondrial membrane potential", "setting": "rat thymocytes [1]; 5 µg/mL", "result": "0.919 ± 0.047"}, {"measurement": "Mitochondrial membrane potential", "setting": "rat thymocytes [1]; 50 µg/mL", "result": "0.925 ± 0.132"}, {"measurement": "Toxic effect on THP-1 cells", "setting": "[4]", "result": "no significant toxic effect"}, {"measurement": "Cytotoxicity (CCK-8 assay)", "setting": "rat thymocytes [2]; 0.5 µg/mL", "result": "0.927 ± 0.132"}, {"measurement": "Cytotoxicity (CCK-8 assay)", "setting": "rat thymocytes [2]; 5 µg/mL", "result": "1.024 ± 0.083"}, {"measurement": "Cytotoxicity (CCK-8 assay)", "setting": "rat thymocytes [2]; 50 µg/mL", "result": "1.111 ± 0.033"}, {"measurement": "Intracellular ROS production", "setting": "rat thymocytes [3]; 0.5 µg/mL", "result": "1.413 ± 0.068"}, {"measurement": "Intracellular ROS production", "setting": "rat thymocytes [3]; 5 µg/mL", "result": "1.399 ± 0.093"}, {"measurement": "Intracellular ROS production", "setting": "rat thymocytes [3]; 50 µg/mL", "result": "1.251 ± 0.049"}]}]}
